The compounds below were run against T1, human Arginine Vasopressin Receptor 1a (AVPR1a) (Homo sapiens, UniProt P37288) (assay: Vasopressin V1a receptor antagonist assay (FLIPR calcium, CHO-AVPR1a cells)).
T1 construct: expressed in transfected cells; host or cells: CHO (CHO-AVPR1a, kept under G418 selection)
Format: cell-based
Method: The purpose of this assay was to determine the inhibitory effect of synthesized compounds on the Vasopressin V1a receptor. The assay was performed in Chinese Hamster Ovary (CHO) cells expressing the human Arginine Vasopressin Receptor 1a (AVPR1a). Arginine Vasopressin (AVP) evokes an increase in intracellular calcium in CHO-AVPR1a cells which is measured in a fluorescence assay on the FLIPR^TETRA using calcium sensitive dyes. Test compounds were assessed for their ability to affect the magnitude of the response to AVP, with antagonists showing a concentration-dependent reduction in the AVP-mediated fluorescence. Compounds were tested in duplicate in a 10-point, 1:3 dilution series starting at a nominal concentration of 3 μM in the assay.
CHO-AVPR1a cells were maintained in routine culture in T175 Flasks at 37° C., 5% CO2. The growth medium consists of Ham's F12 media supplemented with 10% v/v fetal bovine serum, 1× non-essential amino acids, and 0.4 mg/ml Geneticin G418.
On day one, cells were harvested from T175 flasks when they are 80-90% confluent by first washing the cell monolayer with PBS and then dissociated using trypsin 0.05%/EDTA (3 mL for a T175 Flask). The flasks were incubated at room temperature until the cells detached. To the cell suspension, 10 ml of growth media was added and the cell density determined using the Vi-Cell automated cell counter. The cells were spun at 1000 rpm for 3 minutes, then the supernatant was carefully removed and discarded. The cell pellet was re-suspended at 6.0e^5 cells/ml in growth media. 25 μL of cells in growth media was dispensed into each well (15,000 cells per well) of a poly-D-lysine coated black, clear bottomed, 384-well plate. The plates were incubated at 37° C., 5% CO2 overnight.
At the start of each assay day, the potency of AVP was assessed and an EC80 concentration determined for subsequent compound profiling. Assays were performed using a two-step addition protocol on the FLIPR^TETRA; first addition of 5 μl of control or test compound at 10× final in assay buffer with 15 min incubation at 37° C., 5% CO2 followed by 10 μl of AVP at 6× final concentration in assay buffer. Changes in fluorescence were monitored for 3 min after both additions on the FLIPR^TETRA using 470-495 nm excitation and 515-575 nm emission wavelengths. The assay buffer consisted of HBSS (+Ca/+Mg) supplemented with 20 mM HEPES, and for the preparation of the AVP agonist only, 0.1% w/v bovine serum albumin. The assay was initiated by the removal of growth media from the cells and replacement with 45 μl of Calcium-6 dye (Molecular Devices) prepared at 1× in assay buffer. Cells were loaded with dye for 60-90 min at 37° C., 5% CO2 before initiation of the FLIPR^TETRA protocol. […] For compound profiling, test compounds were first serially diluted in DMSO (10-point curve, 1:3 dilutions) then diluted 33.3-fold in assay buffer prior to addition to the dye loaded cells on the FLIPR^TETRA. At the end of the incubation period, 10 μl of AVP in assay buffer containing 0.1% BSA was added at the previously determined EC80 concentration.
In-plate controls for the assay included balovaptan and PF-184563 concentration-response curves as reference V1a antagonists, and an AVP concentration-response curve to confirm the reproducibility of the EC80 used for the compound challenge.

T1 sequence (P37288 whole entry): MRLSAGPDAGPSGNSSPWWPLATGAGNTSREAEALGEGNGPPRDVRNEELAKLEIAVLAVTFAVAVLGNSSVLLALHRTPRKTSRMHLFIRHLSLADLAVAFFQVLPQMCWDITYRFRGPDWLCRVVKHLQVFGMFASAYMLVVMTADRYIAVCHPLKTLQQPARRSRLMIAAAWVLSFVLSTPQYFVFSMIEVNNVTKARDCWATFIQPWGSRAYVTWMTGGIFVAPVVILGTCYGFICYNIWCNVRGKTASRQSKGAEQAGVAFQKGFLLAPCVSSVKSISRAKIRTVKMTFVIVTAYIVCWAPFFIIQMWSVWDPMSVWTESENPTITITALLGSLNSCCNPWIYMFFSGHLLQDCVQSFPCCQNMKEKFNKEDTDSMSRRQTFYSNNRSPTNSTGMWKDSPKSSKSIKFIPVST

CC1COc2cc(Cl)ccc2N1C(=O)N1CC2(C1)CN(c1ncccn1)C2 (single isomer, unassigned) [1-83-A] and CC1COc2cc(Cl)c(F)cc2N1C(=O)N1CC2(C1)CN(c1ncccn1)C2 (single isomer, unassigned) [19-2-A] fall in the same range of IC50: 100 to 500 nM for the first, 100 to 500 nM for the second.

Compared with COc1ncccc1N1CC2(CN(C(=O)N3CCOc4cc(Cl)ccc43)C2)C1 [1-8], Cc1ncccc1N1CC2(CN(C(=O)N3CCOc4cc(Cl)ccc43)C2)C1 [1-9] is higher in IC50: 100 to 500 nM for the first, 500 to 1000 nM for the second.

Cc1ccnc(N2CC3(CN(C(=O)N4c5ccc(Cl)cc5OCC4C)C3)C2)c1 (single isomer, unassigned) [20-11-B] and Cc1ccnc(N2CC3(CN(C(=O)N4c5ccc(F)cc5OCC4C)C3)C2)c1 (centres unmarked) [20-4] cannot be ordered by IC50: < 100 nM for the first, < 100 nM for the second.

CCc1ccnc(N2CC3(CN(C(=O)N4c5ccc(Cl)cc5OCC4C)C3)C2)n1 (single isomer, unassigned) [18-5-A] and Cc1ccnc(N2CC3(CN(C(=O)N4c5ccc(Cl)cc5OCC4C)C3)C2)n1 (single isomer, unassigned) [20-12-A] cannot be ordered by IC50: ≥ 1000 nM for the first, ≥ 1000 nM for the second.

First: Cc1ccnc(N2CC3(CN(C(=O)N4c5ccc(Cl)cc5OCC4C)C3)C2)c1 (single isomer, unassigned) [20-11-A]
Second: COc1ccnc(N2CC3(CN(C(=O)N4c5ccc(Cl)cc5OCC4C)C3)C2)c1 (single isomer, unassigned) [20-8-A]
The IC50 of the first is higher: 500 to 1000 nM for the first, 100 to 500 nM for the second.

O=C(N1CC2(C1)CN(c1ccnnc1)C2)N1CCOc2cc(Cl)ccc21 [1-25] and O=C(N1CC2(C1)CN(c1ccncc1)C2)N1CCOc2cc(Cl)ccc21 [1-34] cannot be ordered by IC50: ≥ 1000 nM for the first, ≥ 1000 nM for the second.

O=C(N1CC2(C1)CN(c1n[nH]c3ccccc13)C2)N1CCOc2cc(Cl)ccc21 [1-82] and COc1cccnc1N1CC2(CN(C(=O)N3CCOc4cc(Cl)ccc43)C2)C1 [1-6] cannot be ordered by IC50: < 100 nM for the first, < 100 nM for the second.

Compared with COc1ccnc(N2CC3(CN(C(=O)N4CCOc5cc(Cl)ccc54)C3)C2)n1 [1-47], COc1cnc(N2CC3(CN(C(=O)N4CCOc5cc(Cl)ccc54)C3)C2)nc1 [1-48] is higher in IC50: < 100 nM for the first, 100 to 500 nM for the second.

First: O=C(N1CC2(C1)CN(c1cnc(Br)cn1)C2)N1CCOc2cc(Cl)ccc21 [1-19]
Second: Cc1ccc(N2CC3(CN(C(=O)N4CCOc5cc(Cl)ccc54)C3)C2)nn1 [1-26]
The IC50 of the first is lower: < 100 nM for the first, 100 to 500 nM for the second. The first is the more potent here.

O=C(N1CC2(CN(Cc3cccnc3)C2)C1)N1CCOc2cc(Cl)ccc21 [2-3] and O=C(N1CC2(CN(Cc3cnccn3)C2)C1)N1CCOc2cc(Cl)ccc21 [2-5] cannot be ordered by IC50: ≥ 1000 nM for the first, ≥ 1000 nM for the second.

Cc1cc(N2CC3(CN(C(=O)N4CCOc5cc(Cl)ccc54)C3)C2)ccn1 [1-36] and O=C(N1CC2(C1)CN(c1ccnc(OC(F)F)c1)C2)N1CCOc2cc(Cl)ccc21 [1-35] cannot be ordered by IC50: ≥ 1000 nM for the first, ≥ 1000 nM for the second.

First: O=C(N1CC2(C1)CN(c1cccc(CO)n1)C2)N1CCOc2cc(Cl)ccc21 [1-32]
Second: Cc1ccc(N2CC3(CN(C(=O)N4CCOc5cc(Cl)ccc54)C3)C2)nc1F [1-46]
The IC50 of the first is higher: 100 to 500 nM for the first, < 100 nM for the second.

Compared with O=C(N1CC2(C1)CN(c1ccc(F)cn1)C2)N1CCS(=O)(=O)c2cc(Cl)ccc21 [8-17], O=C(N1CC2(C1)CN(c1ccc(F)cn1)C2)N1CCCS(=O)(=O)c2cc(Cl)ccc21 [1-75] is higher in IC50: 100 to 500 nM for the first, ≥ 1000 nM for the second. The first is the more potent here.

First: Cc1cc(C)nc(N2CC3(CN(C(=O)N4CCOc5cc(Cl)ccc54)C3)C2)n1 [1-38]
Second: Cc1nc(N2CC3(CN(C(=O)N4CCOc5cc(Cl)ccc54)C3)C2)no1 [7-1, (7-chloro-2,3-dihydro-4H-benzo[b][1,4]oxazin-4-yl)(6-(5-methyl-1,2,4-oxadiazol-3-yl)-2,6-diazaspiro[3.3]heptan-2-yl)methanone]
The IC50 of the first is lower: < 100 nM for the first, 100 to 500 nM for the second. The first is the more potent here.

CC1COc2cc(Cl)ccc2N1C(=O)N1CC2(C1)CN(c1cccnc1)C2 (single isomer, unassigned) [20-1-A] and CC1COc2cc(Cl)ccc2N1C(=O)N1CC2(C1)CN(c1cnccn1)C2 (single isomer, unassigned) [1-58-A] cannot be ordered by IC50: ≥ 1000 nM for the first, ≥ 1000 nM for the second.

O=C(N1CC2(C1)CN(c1nccn3cncc13)C2)N1CCOc2cc(Cl)ccc21 [1-44] and Cc1nccnc1N1CC2(CN(C(=O)N3CCOc4cc(Cl)ccc43)C2)C1 [1-21] cannot be ordered by IC50: < 100 nM for the first, < 100 nM for the second.

Compared with CC1COc2cc(Cl)ccc2N1C(=O)N1CC2(C1)CN(c1noc3cccnc13)C2 (single isomer, unassigned) [18-3-A], CC1COc2cc(Cl)ccc2N1C(=O)N1CC2(C1)CN(c1nn(C)c3ncccc13)C2 (single isomer, unassigned) [20-15-A] is lower in IC50: ≥ 1000 nM for the first, 100 to 500 nM for the second. The second is the more potent here.

Going from CC1COc2cc(Cl)ccc2N1C(=O)N1CC2(C1)CN(c1ncc(F)cn1)C2 (centres unmarked) [18-2] to CC1COc2cc(F)ccc2N1C(=O)N1CC2(C1)CN(c1ncc(F)cn1)C2 (single isomer, unassigned) [18-4-A], the IC50 rises from < 100 nM to ≥ 1000 nM.

Cn1ccc2ncc(N3CC4(CN(C(=O)N5CCOc6cc(Cl)ccc65)C4)C3)cc21 [1-41] and O=C(N1CC2(C1)CN(c1cncc(F)c1)C2)N1CCOc2cc(Cl)ccc21 [1-7] fall in the same range of IC50: 100 to 500 nM for the first, 100 to 500 nM for the second.

O=C(N1CC2(C1)CN(c1ccc(F)cn1)C2)N1CCOc2ncccc21 [8-5] and O=C(N1CC2(C1)CN(c1ccc(F)cn1)C2)N1CCOc2ccncc21 [8-6] cannot be ordered by IC50: ≥ 1000 nM for the first, ≥ 1000 nM for the second.

CC1COc2cc(F)ccc2N1C(=O)N1CC2(C1)CN(c1ncccc1F)C2 (single isomer, unassigned) [1-67-B] and CC1COc2cc(F)ccc2N1C(=O)N1CC2(C1)CN(c1ccccn1)C2 (single isomer, unassigned) [1-66-A] cannot be ordered by IC50: ≥ 1000 nM for the first, ≥ 1000 nM for the second.

Compared with Cn1nccc1N1CC2(CN(C(=O)N3CCOc4cc(Cl)ccc43)C2)C1 [1-42], Cc1cc(F)cnc1N1CC2(CN(C(=O)N3CCOc4cc(Cl)ccc43)C2)C1 [1-52] is lower in IC50: 100 to 500 nM for the first, < 100 nM for the second.

CC1COc2cc(Cl)ccc2N1C(=O)N1CC2(C1)CN(c1nccc(C#N)n1)C2 (single isomer, unassigned) [20-16-B] and CCc1ccnc(N2CC3(CN(C(=O)N4c5ccc(Cl)cc5OCC4C)C3)C2)n1 (single isomer, unassigned) [18-5-B] cannot be ordered by IC50: < 100 nM for the first, < 100 nM for the second.

Compared with O=C(N1CC2(C1)CN(c1ccccn1)C2)N1CCC(O)c2cc(Cl)ccc21 (centres unmarked) [13-2], O=C(N1CC2(CN(Cc3ccccn3)C2)C1)N1CCOc2cc(Cl)ccc21 [2-2] is higher in IC50: < 100 nM for the first, ≥ 1000 nM for the second.

CC1(C)CCN(C(=O)N2CC3(C2)CN(c2ccc(F)cn2)C3)c2ccc(Cl)cc21 [9-9] and O=C(N1CC2(C1)CN(c1ccc(F)cn1)C2)N1CCC(O)c2c1ccc(Cl)c2F (centres unmarked) [13-5] cannot be ordered by IC50: < 100 nM for the first, < 100 nM for the second.

Going from CC1COc2cc(F)ccc2N1C(=O)N1CC2(C1)CN(c1cccnn1)C2 (single isomer, unassigned) [1-62-A] to CC1COc2cc(F)ccc2N1C(=O)N1CC2(C1)CN(c1ccccn1)C2 (centres unmarked) [1-66], the IC50 falls from ≥ 1000 nM to < 100 nM. The second is the more potent here.

CC(c1cccnc1)N1CC2(CN(C(=O)N3CCOc4cc(Cl)ccc43)C2)C1 (centres unmarked) [2-4] and O=C(N1CC2(CN(Cc3ccc(F)cn3)C2)C1)N1CCOc2cc(Cl)ccc21 [2-6] cannot be ordered by IC50: ≥ 1000 nM for the first, ≥ 1000 nM for the second.

O=C(N1CC2(C1)CN(c1ccc(F)cn1)C2)N1CCC(O)c2c1ccc(Cl)c2F (single isomer, unassigned) [13-5-B] and CN1CCCN(C(=O)N2CC3(C2)CN(c2ccc(F)cn2)C3)c2ccc(F)cc21 [8-10] cannot be ordered by IC50: < 100 nM for the first, < 100 nM for the second.

Going from Cc1cc(N2CC3(CN(C(=O)N4CCOc5cc(Cl)ccc54)C3)C2)ncc1C#N [1-29] to CC1COc2cc(F)ccc2N1C(=O)N1CC2(C1)CN(c1cc(C#N)ccn1)C2 (single isomer, unassigned) [20-3-A], the IC50 rises from < 100 nM to ≥ 1000 nM.

First: CC1COc2cc(F)c(F)cc2N1C(=O)N1CC2(C1)CN(c1ncccn1)C2 (single isomer, unassigned) [19-1-A]
Second: CC1COc2cc(Cl)ccc2N1C(=O)N1CC2(C1)CN(c1ncc(C3CC3)cn1)C2 (centres unmarked) [21-7]
The IC50 of the first is higher: ≥ 1000 nM for the first, 100 to 500 nM for the second.

Compared with CCC1COc2cc(F)ccc2N1C(=O)N1CC2(C1)CN(c1ccc(F)cn1)C2 (centres unmarked) [1-56], CC1CN(C(=O)N2CC3(C2)CN(c2ccc(F)cn2)C3)c2ccc(F)cc2O1 (single isomer, unassigned) [9-4-A] is higher in IC50: < 100 nM for the first, 100 to 500 nM for the second. The first is the more potent here.

From patent publication US12152038B2, “Vasopressin receptor antagonists and products and methods related thereto” (Neumora Therapeutics, Inc., priority 2017, dated 2024)
